Measurements reported in ChEMBL document CHEMBL1201862, “PubChem BioAssay data set” (2004).
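48-hour exposure; five concentrations; linearly interpolated endpoints. At the GI50, growth is halved.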 Active and inactive are the calls of the source. No stated cut-off is given here; in the data, active = GI50 up to about 1.1 µM and inactive = higher.

What was measured:
Test in all cases: DTP human tumour cell line panel, 48 h
MDA-MB-435 = tested on: MDA-MB-435
HOP-92 = tested on: HOP-92
786-0 = tested on: 786-0
HOP-62 = tested on: HOP-62
HCC 2998 = tested on: HCC 2998
SF-268 = tested on: SF-268
OVCAR-5 = tested on: OVCAR-5
M14 = tested on: M14
CCRF-CEM = tested on: CCRF-CEM
Malme-3M = tested on: Malme-3M
SK-MEL-28 = tested on: SK-MEL-28
SK-OV-3 = tested on: SK-OV-3
OVCAR-3 = tested on: OVCAR-3
U-251 = tested on: U-251
NCI-H460 = tested on: NCI-H460
MDA-MB-231 = tested on: MDA-MB-231
SK-MEL-5 = tested on: SK-MEL-5
UACC-257 = tested on: UACC-257
HL-60 = tested on: HL-60
RPMI-8226 = tested on: RPMI-8226

Measured: GI50

CO/C(N)=C(C#N)/N=C/c1cccs1
inactive: MDA-MB-435 25.8 µM | HOP-92 > 100 µM | 786-0 > 100 µM | HOP-62 98.4 µM | HCC 2998 > 100 µM | SF-268 > 100 µM | OVCAR-5 > 100 µM | M14 41.2 µM | CCRF-CEM 66.4 µM | Malme-3M 35.3 µM | SK-MEL-28 45.4 µM | SK-OV-3 > 100 µM | OVCAR-3 49.8 µM | U-251 74 µM | NCI-H460 > 100 µM | MDA-MB-231 > 100 µM | SK-MEL-5 39.4 µM | UACC-257 32.5 µM | HL-60 22 µM

CC(C)(C)OC(=O)NCCC1CN(C(=O)c2ccccc2)c2ccccc21 (configuration not stated)
inactive: RPMI-8226 19.7 µM | MDA-MB-435 27.6 µM | HOP-92 26.5 µM | 786-0 35.3 µM | HOP-62 25.8 µM | HCC 2998 73.1 µM | SF-268 41.3 µM | OVCAR-5 32.7 µM | M14 16.7 µM | Malme-3M 28.9 µM | SK-MEL-28 32.7 µM | SK-OV-3 > 100 µM | OVCAR-3 15.9 µM | U-251 40 µM | NCI-H460 22.9 µM | MDA-MB-231 40.1 µM | SK-MEL-5 16.4 µM | UACC-257 26.9 µM

O=C(NC(=O)c1cc(-c2ccccc2)n[nH]1)c1ccccc1
inactive: MDA-MB-435 > 100 µM | HOP-92 > 100 µM | 786-0 > 100 µM | HOP-62 64.9 µM | HCC 2998 > 100 µM | SF-268 > 100 µM | OVCAR-5 > 100 µM | M14 > 100 µM | CCRF-CEM > 100 µM | SK-MEL-28 > 100 µM | SK-OV-3 > 100 µM | OVCAR-3 > 100 µM | U-251 > 100 µM | NCI-H460 > 100 µM | MDA-MB-231 > 100 µM | SK-MEL-5 > 100 µM | UACC-257 > 100 µM

Nc1nc(N)c2ncn(Cc3c(Cl)cccc3Cl)c2n1
inactive: RPMI-8226 > 100 µM | MDA-MB-435 > 100 µM | HOP-92 > 100 µM | 786-0 > 100 µM | HOP-62 > 100 µM | HCC 2998 > 100 µM | SF-268 > 100 µM | OVCAR-5 > 100 µM | M14 > 100 µM | CCRF-CEM > 100 µM | Malme-3M > 100 µM | SK-MEL-28 > 100 µM | SK-OV-3 > 100 µM | OVCAR-3 > 100 µM | U-251 > 100 µM | MDA-MB-231 > 100 µM | SK-MEL-5 > 100 µM | UACC-257 > 100 µM

COc1ccc2c(c1)CN1C(=N2)CSC1c1cc([N+](=O)[O-])ccc1Cl (configuration not stated)
inactive: RPMI-8226 21 µM | MDA-MB-435 19.4 µM | HOP-92 37.4 µM | 786-0 37.9 µM | HOP-62 75.2 µM | HCC 2998 33.1 µM | SF-268 46.6 µM | OVCAR-5 58.5 µM | M14 31.6 µM | Malme-3M 55.8 µM | SK-OV-3 45.3 µM | U-251 40.6 µM | NCI-H460 31.9 µM | MDA-MB-231 54.5 µM | SK-MEL-5 25.6 µM | UACC-257 38.1 µM | HL-60 16.8 µM

O=C1CSC2=NC3=C(COC/C3=C\c3ccc(Br)cc3)C(c3ccc(Br)cc3)N12 (configuration not stated)
inactive: RPMI-8226 20.9 µM | MDA-MB-435 49 µM | HOP-92 > 100 µM | 786-0 83.6 µM | HOP-62 > 100 µM | HCC 2998 > 100 µM | SF-268 > 100 µM | OVCAR-5 > 100 µM | M14 28.8 µM | CCRF-CEM 17.6 µM | SK-OV-3 > 100 µM | OVCAR-3 61 µM | U-251 66.5 µM | NCI-H460 51.2 µM | MDA-MB-231 > 100 µM | SK-MEL-5 96.4 µM | UACC-257 > 100 µM | HL-60 12.9 µM

COc1ccccc1/C=C/C1=NN(c2cccc(S(=O)(=O)O)c2)C2(C1)SCC(=O)N2c1nc2ccccc2s1 (configuration not stated)
inactive: RPMI-8226 23.6 µM | MDA-MB-435 > 100 µM | HOP-92 23.3 µM | 786-0 > 100 µM | HCC 2998 60.3 µM | SF-268 > 100 µM | OVCAR-5 > 100 µM | M14 > 100 µM | CCRF-CEM 23 µM | Malme-3M > 100 µM | SK-MEL-28 > 100 µM | U-251 52.6 µM | NCI-H460 61.9 µM | MDA-MB-231 > 100 µM | SK-MEL-5 64.4 µM | UACC-257 97.7 µM | HL-60 50.2 µM

C1CSCCSCCSCCSCCS1
inactive: RPMI-8226 > 100 µM | MDA-MB-435 > 100 µM | HOP-92 > 100 µM | 786-0 > 100 µM | HOP-62 > 100 µM | HCC 2998 > 100 µM | SF-268 > 100 µM | OVCAR-5 > 100 µM | M14 > 100 µM | SK-MEL-28 > 100 µM | SK-OV-3 > 100 µM | OVCAR-3 > 100 µM | U-251 > 100 µM | NCI-H460 > 100 µM | MDA-MB-231 > 100 µM | SK-MEL-5 > 100 µM | UACC-257 > 100 µM | HL-60 > 100 µM
